No end group written: not given here.
Molecular target: T1, GPR103 Q184^4.64A (Homo sapiens, UniProt Q96P65, Q184A)
T1 construct: we used human full-length QRFPR-encoding plasmids; expressed in transfected cells; host or cells: HEK293 cells, pCAGGS vector
T1 sequence (Q96P65 1-431 Q184A): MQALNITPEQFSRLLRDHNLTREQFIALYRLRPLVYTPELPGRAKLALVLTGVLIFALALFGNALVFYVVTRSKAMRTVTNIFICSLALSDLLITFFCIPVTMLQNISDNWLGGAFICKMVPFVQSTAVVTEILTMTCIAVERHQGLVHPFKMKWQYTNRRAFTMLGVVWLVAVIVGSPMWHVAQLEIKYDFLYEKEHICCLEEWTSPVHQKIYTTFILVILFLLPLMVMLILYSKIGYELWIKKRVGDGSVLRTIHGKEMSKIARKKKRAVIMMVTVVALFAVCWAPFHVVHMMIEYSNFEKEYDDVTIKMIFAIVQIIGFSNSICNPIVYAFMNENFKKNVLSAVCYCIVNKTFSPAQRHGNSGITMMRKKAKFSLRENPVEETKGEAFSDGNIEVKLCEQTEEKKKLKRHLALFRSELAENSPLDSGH
Experiment: TGFα shedding assay; Exp. level WT (1:5)
Assay type: cell-based
Description: For the TGFα shedding assay and the flow cytometry analysis, we used human full-length QRFPR-encoding plasmids. Specifically, GPR103 was N-terminally modified with an HA signal sequence followed by a FLAG epitope and then a flexible linker ([…]; the FLAG epitope is underlined) and inserted into the pCAGGS vector. Plasmid encoding GPR103 mutants were generated using Quickchange Site-Directed Mutagensis kit (Agilent).
The TGFα shedding assay was performed as described previously with minor modifications. Plasmid transfection was performed in a 6-well plate with a mixture of 500 ng (per well in a 6-well plate) AP-TGFα-encoding plasmid and 200 ng GPR103-encoding plasmid. After 1-day culture, the transfected cells were harvested by trypsinization, pelleted by centrifugation at 190 × g for 5 min, and washed once with 5 mM HEPES (pH 7.4)-containing Hank’s Balanced Salt Solution (HBSS). After centrifugation, the cells were resuspended in 8 mL of the HEPES-containing HBSS. The cell suspension was seeded in a 96-well culture plate (cell plate) at a volume of 90 μL (per well hereafter) and incubated in a 37 °C incubator with 5% CO2 for 30 min. […] After spinning the cell plates at 190 × g for 2 min, 80 μL of conditioned media was transferred to an empty 96-well plate (conditioned media (CM) plate). Then, 80 μL of AP reaction solution (10 mM p-nitrophenylphosphate (p-NPP), 120 mM Tris-HCl (pH 9.5), 40 mM NaCl, and 10 mM MgCl2) was dispensed into the cell plates and the CM plates. Absorbance at 405 nm of the plates was measured using a microplate reader (SpectraMax 340 PC384, Molecular Devices) before and after 1-h incubation at room temperature. Ligand-induced AP-TGFα release was calculated by subtracting spontaneous AP-TGFα release signal from ligand-induced AP-TGFα release signal. The AP-TGFα release signals were fitted to a four-parameter sigmoidal concentration–response curve, using the Prism 10 software (GraphPad Prism). For each replicate experiment, the pEC50 parameter (negative logarithmic values of EC50 values) of the individual GPR103 mutants were normalized to that of the wild-type GPR103 performed in parallel, and resulting ∆pEC50 values were used to denote ligand response activity of the mutants. […]
Exp. le vel: WT (1:5 0)Exp. le vel: WT (1:5 0)Exp. le vel: WT (1:5 0)Exp. le vel: WT (1:2 0)Exp. le vel: WT (1:2 0)Exp. le vel: WT (1:1 0) […]
L1 4N - t e r mA F2 5N - t e r mA I 2 6N - t e r mA Y 2 9N - t e r mA C 9 82 .5 7A T10 22 .6 1A Exp . l eve l: WT (1 :5)Exp . l evel : >WT (1 :1)Exp. le vel: WT (1:2 0)Exp. le vel: WT (1:2 0)Exp. le vel: WT (1:5 0)Exp . l eve l: WT (1 :1) […]
Exp. le vel: WT (1:1 0)Exp. le vel: WT (1:2 0) C 1 1 83 .2 5AExp. le vel: WT (1:5 0)Exp. le vel: WT (1:5 0)Exp. le vel: WT (1:2 0)Exp . l eve l: WT (1 :5) […]
Exp. le vel: WT (1:5 0)Exp. le vel: WT (1:1 0)Exp. le vel: WT (1:5 0) E203ECL2AExp . l evel : >WT (1 :1)Exp. le vel: WT (1:5 0)Exp. le vel: WT (1:5 0) […]
Exp . l eve l: WT (1 :1) F28Exp. le vel: WT (1:5 0) C 2 8 56 .4 7AExp. le vel: WT (1:2 0) WExp. le vel: WT (1:2 0) F28Exp. le vel: WT (1:5 0)Exp . l evel : >WT (1 :1) […]
Exp. le vel: WT (1:5 0)Exp. le vel: WT (1:5 0) C 3 2 77 .4 8AExp . l eve l: WT (1 :5)Exp . l evel : >WT (1 :1)Exp . l evel : >WT (1 :1) […]
Suppl eme nt ary Figure 1 | Mutational analysis of GPR103. […]
mutants. Data are presented as mean values ± SEM, normally n=3-5; dots), each performed in triplicate. b-d Cell-surface expression (b) and QRFP26-in-duced activation of GPR103 (c, d) were analyzed by the flow cytometry and the TGFα shedding assay, respectively. From the concentration–response curves (a), Emax (c) and ΔpEC50 (d) values relative to the wild type were calculated. Colors in the mutant bars indicate an expression level matching to that of titrated wild type. Statistical analyses were performed using the ordinary one-way ANOVA followed by Dunnett tests with the expression-matched […]

**Q.** TSGPLGNLAEELNGYSRKKGGFSFRF-NH2 [QRFP26] was tested. Which Emax (mean) did it give?
**A.** 99.8%

**Q.** What about the EC50 (n = 3) of the same substance?
**A.** 234 nM

**Q.** What about the Emax (n = 3) of the same substance?
**A.** 103 ± 2.2%

From paper PMC11187126, “Structure and dynamics of the pyroglutamylated RF-amide peptide QRFP receptor GPR103” (Nature Communications, 2024)
